What was measured:
Assay in all cases: relative viability (nuclei count vs DMSO), 5 days (fraction); higher = more cells survive
VE-821 + Palbociclib = compound: CS(=O)(=O)c1ccc(-c2cnc(N)c(C(=O)Nc3ccccc3)n2)cc1 [VE-821] + CC(=O)c1c(C)c2cnc(Nc3ccc(N4CCNCC4)cn3)nc2n(C2CCCC2)c1=O [Palbociclib] (partner 0.5 µM)
Procedure, shortened: (§1)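 For relative viability, nuclei counts in treated wells were divided by those in vehicle wells. Lung cancer cell lines had been pin-tool dosed in 1536-well plates the day after seeding and cultured for 5 days, then fixed and stained in one step (final 0.05% Triton X-100, 1% formaldehyde, 1 ug/ml Hoechst) and imaged at 4×. Doses were one drug alone or a fixed anchor-drug dose plus five library-drug doses (not always all listed) in √10 steps, and values are duplicate-plate medians.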

VE-821 + Dasatinib = compound: CS(=O)(=O)c1ccc(-c2cnc(N)c(C(=O)Nc3ccccc3)n2)cc1 [VE-821] + Cc1nc(Nc2ncc(C(=O)Nc3c(C)cccc3Cl)s2)cc(N2CCN(CCO)CC2)n1 [Dasatinib] (partner 0.075 µM)
Procedure, shortened: as §1

Vismodegib + OSI-027 = compound: CS(=O)(=O)c1ccc(C(=O)Nc2ccc(Cl)c(-c3ccccn3)c2)c(Cl)c1 [Vismodegib] + COc1cccc2cc(-c3nc([C@H]4CC[C@H](C(=O)O)CC4)n4ncnc(N)c34)[nH]c12 [OSI-027] (partner 0.5 µM)
Procedure, shortened: as §1

Vismodegib + AZD7762 = compound: CS(=O)(=O)c1ccc(C(=O)Nc2ccc(Cl)c(-c3ccccn3)c2)c(Cl)c1 [Vismodegib] + NC(=O)Nc1cc(-c2cccc(F)c2)sc1C(=O)N[C@H]1CCCNC1 [AZD7762] (partner 0.2 µM)
Procedure, shortened: as §1

Row | Cell Line | relative viability (VE-821 + Palbociclib; first compound 0.08 µM) | relative viability (VE-821 + Palbociclib; first compound 0.253 µM) | relative viability (VE-821 + Palbociclib; first compound 0.8 µM) | relative viability (VE-821 + Palbociclib; first compound 2.53 µM) | relative viability (VE-821 + Palbociclib; first compound 8 µM) | relative viability (VE-821 + Dasatinib; first compound 0.08 µM) | relative viability (VE-821 + Dasatinib; first compound 0.253 µM) | relative viability (VE-821 + Dasatinib; first compound 0.8 µM) | relative viability (VE-821 + Dasatinib; first compound 2.53 µM) | relative viability (VE-821 + Dasatinib; first compound 8 µM) | relative viability (Vismodegib + OSI-027; first compound 0.08 µM) | relative viability (Vismodegib + OSI-027; first compound 0.253 µM) | relative viability (Vismodegib + OSI-027; first compound 0.8 µM) | relative viability (Vismodegib + OSI-027; first compound 2.53 µM) | relative viability (Vismodegib + OSI-027; first compound 8 µM) | relative viability (Vismodegib + AZD7762; first compound 0.08 µM) | relative viability (Vismodegib + AZD7762; first compound 0.253 µM) | relative viability (Vismodegib + AZD7762; first compound 0.8 µM) | relative viability (Vismodegib + AZD7762; first compound 2.53 µM) | relative viability (Vismodegib + AZD7762; first compound 8 µM)
1 | 201T | 0.37 | 0.35 | 0.355 | 0.318 | 0.325 | 0.588 | 0.529 | 0.476 | 0.434 | 0.44 | 0.834 | 0.741 | 0.733 | 0.731 | 0.747 | 0.624 | 0.623 | 0.696 | 0.622 | 0.581
2 | A-427 | 0.55 | 0.547 | 0.565 | 0.562 | 0.449 | 0.793 | 0.647 | 0.657 | 0.652 | 0.423 | 0.471 | 0.464 | 0.446 | 0.405 | 0.484 | 0.739 | 0.706 | 0.805 | 0.619 | 0.801
3 | ABC-1 | 0.651 | 0.788 | 0.601 | 0.695 | 0.633 | 0.554 | 0.519 | 0.614 | 0.517 | 0.439 | 0.638 | 0.392 | 0.581 | 0.403 | 0.52 | 0.97 | 0.851 | 0.823 | 0.803 | 0.839
4 | BEN | 0.504 | 0.461 | 0.469 | 0.517 | 0.642 | 0.31 | 0.337 | 0.282 | 0.291 | 0.364 | 0.336 | 0.308 | 0.272 | 0.294 | 0.311 | 0.792 | 0.68 | 0.77 | 0.684 | 0.701
5 | CAL-12T | 0.571 | 0.373 | 0.472 | 0.51 | 0.308 | 0.499 | 0.327 | 0.372 | 0.443 | 0.243 | 0.776 | 0.462 | 0.774 | 0.636 | 0.654 | 0.643 | 0.559 | 0.607 | 0.577 | 0.664
6 | COR-L23 | 0.284 | 0.307 | 0.32 | 0.394 | 0.307 | 0.678 | 0.48 | 0.545 | 0.536 | 0.395 | 0.753 | 0.743 | 0.742 | 0.793 | 0.751 |  |  |  |  | 
7 | COR-L 105 | 0.432 | 0.339 | 0.443 | 0.409 | 0.399 | 0.327 | 0.313 | 0.276 | 0.344 | 0.255 | 0.683 | 0.63 | 0.771 | 0.739 | 0.658 |  |  |  |  | 
8 | ChaGo-K-1 | 0.95 | 0.956 | 0.909 | 0.905 | 0.803 | 0.553 | 0.525 | 0.582 | 0.62 | 0.418 | 0.663 | 0.546 | 0.554 | 0.619 | 0.516 | 0.886 | 0.873 | 0.753 | 0.857 | 0.97
9 | EKVX | 0.458 | 0.361 | 0.341 | 0.429 | 0.4 | 0.531 | 0.483 | 0.449 | 0.45 | 0.328 | 0.677 | 0.67 | 0.676 | 0.715 | 0.731 |  | 0.774 | 0.717 | 0.606 | 0.735
10 | EMC-BAC-2 | 0.531 | 0.491 | 0.528 | 0.545 | 0.524 | 0.349 | 0.316 | 0.346 | 0.342 | 0.275 | 0.423 | 0.378 | 0.419 | 0.394 | 0.395 | 1.16 | 1.1 | 1.06 | 1.07 | 1.08
11 | EPLC-272H | 0.342 | 0.313 | 0.295 | 0.33 | 0.326 | 0.341 | 0.325 | 0.418 | 0.41 | 0.219 | 0.291 | 0.273 | 0.279 | 0.278 | 0.275 | 0.3 | 0.166 | 0.304 | 0.163 | 0.257
12 | H3255 | 0.288 | 0.332 | 0.332 | 0.326 | 0.319 | 0.364 | 0.403 | 0.321 | 0.383 | 0.328 | 0.58 | 0.634 | 0.701 | 0.579 | 0.522 | 0.951 | 0.886 | 0.818 | 0.785 | 0.853
13 | HARA | 0.227 | 0.29 | 0.239 | 0.279 | 0.299 | 0.271 | 0.221 | 0.315 | 0.254 | 0.253 | 0.702 | 0.47 | 0.529 | 0.492 | 0.466 | 0.462 |  | 0.309 | 0.244 | 0.417
14 | HCC-15 | 0.822 | 0.767 | 0.809 | 0.907 | 0.748 | 0.704 | 0.595 | 0.6 | 0.721 | 0.495 | 0.753 | 0.664 | 0.654 | 0.738 | 0.631 | 1.17 | 1.14 | 1.19 | 1.21 | 1.21
15 | HCC-44 | 0.956 | 0.981 | 0.992 | 1.08 | 1.07 |  |  |  |  |  | 0.532 | 0.482 | 0.453 | 0.526 | 0.611 | 1.06 | 1.04 | 0.932 | 1.01 | 1.04
16 | HCC-78 | 0.491 | 0.453 | 0.482 | 0.489 | 0.461 | 0.453 | 0.281 | 0.376 | 0.432 | 0.33 | 0.372 | 0.371 | 0.382 | 0.347 | 0.347 | 0.575 | 0.605 | 0.544 | 0.542 | 0.634
17 | HCC-366 | 0.668 | 0.378 | 0.303 | 0.0939 | 0.0558 | 0.67 | 0.633 | 0.516 | 0.255 | 0.0491 | 1.32 | 0.888 | 0.77 | 0.929 | 0.775 | 0.269 | 0.217 | 0.292 | 0.258 | 0.373
